# In patent US6949507B2, “Use of agents which bind G proteins for treating septic shock” (Dana-Farber Cancer Institute, Inc., priority 1997, dated 2005):
# “Also recorded” adds a separate entry of the source.
# Tests used:
# [1] = system: LPS-induced lethal endotoxic shock; test: LPS-induced lethal endotoxic shock in rats; type: in vivo, Wistar rats
# Method: Wistar rats (200 g) were obtained from Charles River Laboratories. Rats were treated with 3 mg/kg mastoparan by intravenous injection in the tail vein, immediately followed by 15 mg/kg lead acetate and 5 μg/kg LPS 0111:B4 intravenously. Mortality was assessed up to 96 hours following LPS treatment. Mortality frequency was compared by Fisher exact test and statistical analysis was performed using Yates corrected Chi square test.
# To determine the effect of mastoparan in vivo, the effect of mastoparan on LPS-induced lethal endotoxic shock in rats was assessed.
# Erk kinases = test: Erk 1 and 2 MAP kinase activation in human monocytes (immunoblotting); type: cell-based
# Method: (§1) For detection of p38, phosphorylated p38 and phosphorylated Erk kinases in monocyte lysates, monocytes were subjected to various treatments and lysed in boiling reducing Laemmli sample buffer. The lysates were subjected to electrophoresis through a 10% SDS PAGE gel and were then transferred to nitrocellulose (NC). After washing twice with TBS-Twwen 20(0.1%) the NC was placed in a solution of Ponceau S dye to ensure equal loading and left in blocking buffer [1×TBS; […]; 5% milk] for 1 hour. After blocking and washing, the NC was incubated with anti-p38 N+C terminus (Santa Cruz Biotechnology Inc., Santa Cruz, Calif.) for 2-3 hours or with anti-phosphorylated p38 and Erk antibodies (New England Biolabs, Inc., Beverly, Mass.) for 18 hours. Membranes were washed three times in TBS-Tween 20 and were incubated for 30 minutes with horseradish peroxidase conjugated donkey-α-rabbit antibody in blocking buffer (Amersham Corp., Arlington Heights, Ill.). Membranes were washed an additional six times [3×TBS-Tween-20; 3×TBS], and were developed by exposure to ECL chemicals (Amersham corp., Arlington Heights, Ill.) and visualized by exposure to film.
# The lack of substantial LPS-induced Erk kinase phosphorylation in freshly isolated monocytes is consistent with results obtained with other non-transformed human cells (Nick et al., J. Immunol., 156: 4867-4875, 1996). […]
# human monocytes [2] = test: LPS-induced IL-6 and TNF production from freshly isolated human monocytes (ELISA); type: cell-based
# Excerpt: (§2) Freshly isolated human peripheral blood mononuclear cells (PBMC) and monocytes were obtained from leukopaks (discarded leukocyte from platelet donations). The cells were fractionated on FICOLL-HYPAQUE™ gradients, washed, treated with tris-buffered NH4Cl to eliminate RBCs and washed to obtain PMBCs. Monocytes were obtained by depleting the PBMCs of T cells and NK cells by negative selection asking standard techniques. T cells and NK cells were removed by treatment with anti-CD3 and anti-CD2 monoclonal antibodies followed by goat anti-mouse Ig conjugated magnetic beads at a 10:1 bead:cell ratio. The monocyte preparations were at least 80-85% monocytes, as determined by anti-CD14 staining and forward and slide light scatter analysis using a FACScan (Becton-Dickenson, Elmhurst, Ill.). Less than 2% of the contaminating cells in the monocyte preparation were T cells and no NK cells could be detected. Monocytes were maintained in Ham's F-12 10% FCS, L-Glutamine and penicillin/streptomyocin at 37° C. in 5% CO2.
# (§3) Freshly isolated human monocytes, human PBMC and U373-CD14 cells were incubated with 10 ng/ml LPS (E coli 0111:B4, Sigma, St. Louis, Mo.), 100 ng/ml PMA or were untreated in supplemented RPMI [10% FCS; 2 mM L-glutamine and penicillin/streptomycin] with or without various concentrations of mastoparan for 18 hours at 37° C. in 24 well tissue culture dishes. IL-6 and TNF-α levels were determined by ELISA (Endogen Inc., Boston, Mass.) of supernatants harvested at 4 hours (for TNF-α) and at 18 hours (for IL-6) after LPS stimulation.
# (§4) In order to determine if the effect of mastoparan on LPS-induced cytokine production was due to a direct effect on monocytes, a highly enriched monocyte population was tested for the effect of LPS and mastoparan on cytokine production from these cells. Freshly isolated human monocytes were treated with mastoparan and LPS, after which IL-6 and TFN cytokine levels were measured in the tissue culture supernatants of the cells (FIG. 3A). […] When mastoparan was used in conjunction with LPS, cytokine production was diminished. […] Mastoparan had little effect on cytokine production from PMA stimulated cells (FIG. 3B), indicating the specificity of mastoparan action, and lack of mastoparan toxicity. Mastoparan had no effect on cell viability as measured by trypan blue uptake even after 36 hours of continuous mastoparan incubation.
# U373-CD14 cells = test: LPS-induced IL-6 production from U373-CD14 transfectants; type: cell-based
# Method: U373 cell CD14 transfectants (U373-CD14) were maintained in EMEM supplemented with 10% FCS, L-Glutamine and penicillin/streptomyocin at 37° C. in 5% CO2.
# as §3
# In addition, the effect of mastoparan on LSP-induced cytokine production from an LPS responsive, CD14 transfected cell line was determined. LPS treatment of U373-CD14 transfectants induced an LPS dose-dependent production of IL-6 (FIG. 4). […] IL-6 production induced by 10 ng/ml LPS was also ablated by treatment of the cells with mastoparan, while at 100 ng/ml of LPS, mastoparan reduced IL-6 levels by approximately one third. At high concentrations of LPS (1 μg/ml) the IL-6 responses of these cells were not inhibited by treatment with the anti-CD14 monoclonal antibody. […] At LPS concentrations of 1 μg/ml, mastoparan was ineffective at reducing cytokine responses from these cells. Thus, CD14-independent LPS signals were not inhibited by mastoparan.
# human PBMCs = test: LPS-induced IL-6 production from human PBMCs (ELISA); type: cell-based; conditions: for inhibition of LPS-induced IL-6 production: LPS stimulated human PBMCs, 10 ng/ml LPS, IL-6 at 18 hours
# Excerpt: as §2, §3
# Freshly isolated PBMCs were treated with LPS and/or peptides (mastoparan or the MAS-17 control peptide) and IL-6 levels were measured in the tissue culture supernatants of the cells (FIG. 2). PBMCs produced IL-6 in response to LPS, while neither mastoparan nor MAS-17 stimulated IL-6 production from the PBMCs.
# human monocytes [3] = test: PMA-induced cytokine production from human monocytes; type: cell-based; conditions: 100 ng/ml PMA
# Method: as §3, §4
# p38 MAP kinase = test: LPS-induced p38 MAP kinase phosphorylation / nuclear translocation (immunoblotting); type: cell-based, human
# Method: as §1
# For detection of p38 in nuclear extracts, cells after a variety of treatments were subject to lysis and nuclear extraction as described in Lerder et al., J. Immunol. 152:77-86 (1994). The nuclear extracts were subjected to protein quantitation by Micro BCA assay (Pierce, Rockford, Ill.) using a BSA standard. The details of the blotting procedure were the same as above except that […] of extract was used.
# Because mastoparan had profound effects on cytokine production and p38 MAP kinase is involved,in LPS induced-signaling, the effect of mastoparan on MAP kinase activation was evaluated. For full activation, p38 MAP kinase requires phosphorylation on both threonine and tyrosine residues (Raingeaud et al., J. Biol. Chem., 270: 7420-7426, 1995). Detection of dual-phosphorylated p38 MAP kinase by monoclonal antibodies specific for the dual-phosphorylated form of p38 was used as a measure of p38 activation. […]
# human monocytes [4] = test: Cell viability by trypan blue uptake; type: cell-based; conditions: after 36 hours of continuous mastoparan incubation
# Method: as §4
# [5] = 3 mg/kg mastoparan i.v. + lead acetate + 5 μg/kg LPS, dead/total
# [6] = LPS-stimulated, various concentrations of mastoparan (FIG. 3A)
substance,measurement,setting,value
mastoparan,Mortality Total (%),[1]; 3 mg/kg mastoparan i.v. + lead acetate + 5 μg/kg LPS,44.4%
same,Mortality 14 hours,[1]; [5],7/18
same,Mortality 24 hours,[1]; [5],8/18
same,protection from LPS induced mortality,"[1]; 3 mg/kg mastoparan i.v., 15 mg/kg lead acetate and 5 μg/kg LPS i.v., p<0.05 at 14 and 24 hours",significantly protect
same,mortality at 96 hours relative to the 24 hour point,[1]; experiment continued for 96 hours,unchanged
same,toxic effects when used alone in the model system,"[1]; mastoparan alone, data not shown",did not have any toxic effects
same,Erk kinase activation induced by LPS,Erk kinases,specific inhibition; also recorded: completely inhibited
same,Erk kinase activation induced by PMA,Erk kinases,minimal effects
same,inhibition of IL-6 production in human monocytes,human monocytes [2]; [6],dose-dependent inhibition
same,inhibition of TNF-α production in human monocytes,human monocytes [2]; [6],dose-dependent inhibition
same,LPS-induced cytokine production,"human monocytes [2]; human monocytes, 13.34 μM mastoparan",totally ablated
same,IL-6 production induced by mastoparan alone,"human monocytes [2]; human monocytes, without LPS",induced neither
same,TNF production induced by mastoparan alone,"human monocytes [2]; human monocytes, without LPS",induced neither
same,reduction of IL-6 production in monocytes stimulated with LPS,human monocytes [2]; mastoparan as low as 1.67 μM,dramatic reductions
same,reduction of TNF production in monocytes stimulated with LPS,human monocytes [2]; mastoparan as low as 1.67 μM,dramatic reductions
same,LPS-induced cytokine production from human monocytes,"human monocytes [2]; mastoparan in conjunction with LPS, concentration not given",inhibition; also recorded: diminished
same,IL-6 production induced by LPS,"U373-CD14 cells; U373-CD14 cells, 10 ng/ml LPS",ablated
same,reduction of IL-6 levels,"U373-CD14 cells; U373-CD14 cells, 100 ng/ml LPS",approximately one third
same,IL-6 / cytokine responses at high LPS (CD14-independent),"U373-CD14 cells; U373-CD14 cells, 1 μg/ml LPS",ineffective
same,CD14-dependent LPS induced signal transduction,U373-CD14 cells; U373-CD14 transfected cells (FIG. 4),inhibits
same,inhibition of LPS-induced IL-6 production,human PBMCs,potent inhibitor
same,inhibition of LPS-induced IL-6 production,human PBMCs; listed as mastoparan,inhibits; also recorded: dose-dependent
same,LPS-induced IL-6 production,"human PBMCs; human PBMCs, 13.3 μM mastoparan",totally ablated
same,IL-6 production stimulated by peptide alone,"human PBMCs; human PBMCs, peptide without LPS",neither
same,cytokine production from PMA stimulated cells,human monocytes [3],little effect
same,LPS-induced p38 MAP kinase activity,p38 MAP kinase; FIG. 5B,reduces
same,LPS-induced phosphorylation of p38 MAP kinase,p38 MAP kinase; monocytes and PBMC,inhibition; also recorded: reduced
same,LPS-induced nuclear translocation of p38,p38 MAP kinase; nuclear extracts,inhibited
same,cell viability as measured by trypan blue uptake,human monocytes [4],no effect
